“Also recorded” adds a separate entry of the source.
How the values were obtained:
Type in all cases: cell-based, human
pEBS7 (ATM-null) cells [1] = experiment: Chemopotentiation, sulforhodamine B growth assay in 96 well plates; conditions: for % survival / Avg (absorbance at 564 nm): pEBS7
Protocol: (§1) The A-T fibroblast AT221JE-T cells (pEBS7, herein referred to as ATM-null cells) and the trans-complemented ATM+/+ (pEBS7-YZ5, herein referred to as ATM-competent cells) were grown in DMEM+20% FBS PSG and 100 ug/ml hygromycin. These cells are immortalised fibroblasts from an A-T patient which were transfected with pEBS7-YZ5 vector coding for full length ATM and the hygromycin resistance marker or pEBS7 vector, coding for the hygromycin resistance marker only. (Ziv Y et al (1997) Oncogene 15, 159-67)
(§2) Following a 4-hour incubation to allow cell adherence, 5 μl DNA-PKcS inhibitor KU-0060648 (final concentration 0.5 μM) or DMSO/PBS equivalent was added. After a further 1 hour incubation, 5 μl of chemotherapeutic drug was added per well (see table 1). Drugs were removed after 16 hours and 150 μl fresh medium added per well. After 24h, one plate for each cell line was fixed and stained to account for background differences between the lines. Five days after seeding, the medium was aspirated from the wells of the remaining assay plates and 100 μl ice cold 10% TCA added for 30 minutes at 4° C. The wells were then washed four times with tap water and 50 μl 0.4% sulforhodamine B in 1% acetic acid added per well. After 15 minutes incubation at room temperature, excess stain was washed from the wells with 1% acetic acid. 100 μl […] pH6.8 was then added per well, the plates shaken to resuspend the stain and the absorbance at 564 nm determined.

[2] = test system: pEBS7-YZ5 (ATM-competent, ATM+/+) cells; experiment: as above; conditions: for % survival / Avg (absorbance at 564 nm): pEBS7-YZ
Protocol: as §1, §2

pEBS7 (ATM-null) cells [3] = experiment: Radio-potentiation, colony formation after ionising radiation; conditions: for % survival: ATM-null pEBS7
Protocol: as §1
(§3) To show radio-potentiation, 2×10^5 cells per well were seeded into 6 well cluster plates. One plate was used for each dose of irradiation. After allowing the cells to adhere for 4 hours, the cells were dosed with a final concentration of 0.5 μM of the DNA-PKcs inhibitor KU-0060648 or equivalent DMSO/PBS control. After further incubation for 1 hour, the cells were irradiated with 0, 0.5, 1, 2 and 4 Grays. After 16 hours incubation, the cells were washed with 1 ml PBS and 500 μl trypsin EDTA added for 5 minutes at 37° C. 1.5 ml fresh medium was then added and the cell density in the untreated (0 Gy) wells determined. All subsequent calculations for seeding densities were performed according to this cell count. Cells were then replated into 2 mls fresh medium in 6 well cluster plates at the appropriate cell densities. After 6 days' incubation, the medium was removed by aspiration and cell colonies stained using 400 μl per well Giemsa stain for 20 minutes. Excess stain was washed from the plates with tap water and the plates left to air-dry. The number of colonies per well was then counted using Colcount software.

[4] = test system: pEBS7-YZ5 (ATM-competent, ATM+/+) cells; experiment: as above; conditions: for % survival: ATM-competent pEBS7-YZ
Protocol: as §1, §3

[5] = KU-0060648 0.5 μM + doxorubicin 0
[6] = KU-0060648 0.5 μM + doxorubicin 0.01 (unit not given)
[7] = KU-0060648 0.5 μM + doxorubicin 0.025 (unit not given)
[8] = KU-0060648 0.5 μM + doxorubicin 0.05 (unit not given)
[9] = KU-0060648 0.5 μM + doxorubicin 0.075 (unit not given)
[10] = KU-0060648 0.5 μM + doxorubicin 0.1 (unit not given)
[11] = KU-0060648 0.5 μM + doxorubicin 0.25 (unit not given)
[12] = KU-0060648 0.5 μM + doxorubicin 0.5 (unit not given)
[13] = KU-0060648 0.5 μM + doxorubicin 0.75 (unit not given)
[14] = KU-0060648 0.5 μM + doxorubicin 1 (unit not given)
[15] = KU-0060648 0.5 μM + doxorubicin 2.5 (unit not given)
[16] = KU-0060648 0.5 μM + doxorubicin 5 (unit not given)
[17] = KU-0060648 0.5 μM + etoposide 0
[18] = KU-0060648 0.5 μM + etoposide 0.01 (μg/ml per Table 1)
[19] = KU-0060648 0.5 μM + etoposide 0.025 (μg/ml per Table 1)
[20] = KU-0060648 0.5 μM + etoposide 0.05 (μg/ml per Table 1)
[21] = KU-0060648 0.5 μM + etoposide 0.075 (μg/ml per Table 1)
[22] = KU-0060648 0.5 μM + etoposide 0.1 (μg/ml per Table 1)
[23] = KU-0060648 0.5 μM + etoposide 0.25 (μg/ml per Table 1)
[24] = KU-0060648 0.5 μM + etoposide 0.5 (μg/ml per Table 1)
[25] = KU-0060648 0.5 μM + etoposide 0.75 (μg/ml per Table 1)
[26] = KU-0060648 0.5 μM + etoposide 1 (μg/ml per Table 1)
[27] = KU-0060648 0.5 μM + etoposide 2.5 (μg/ml per Table 1)
[28] = KU-0060648 0.5 μM + etoposide 5 (μg/ml per Table 1)

CCN1CCN(CC(=O)Nc2ccc(-c3cccc4c(=O)cc(N5CCOCC5)oc34)c3sc4ccccc4c23)CC1 [KU-0060648, 2-(4-Ethyl-piperazin-1-yl)-N-[4-(2-morpholin-4-yl-4-oxo-4H-1-benzopyran-8-yl)-dibenzothiophen-1-yl]-acetamide]
potentiation of etoposide (pEBS7 (ATM-null) cells [1]; ATM-null cells): increased sensitisation; also recorded: significantly potentiated
potentiation of the effect of doxorubicin (pEBS7 (ATM-null) cells [1]; ATM-null cells): increased sensitivity; also recorded: significantly potentiate
% survival (pEBS7 (ATM-null) cells [1]; [5]): 100%
Avg (absorbance at 564 nm) (pEBS7 (ATM-null) cells [1]; [5]): 1.42
% survival (pEBS7 (ATM-null) cells [1]; [6]): 107.9%
Avg (absorbance at 564 nm) (pEBS7 (ATM-null) cells [1]; [6]): 1.53
% survival (pEBS7 (ATM-null) cells [1]; [7]): 87.0%
Avg (absorbance at 564 nm) (pEBS7 (ATM-null) cells [1]; [7]): 1.23
% survival (pEBS7 (ATM-null) cells [1]; [8]): 81.3%
Avg (absorbance at 564 nm) (pEBS7 (ATM-null) cells [1]; [8]): 1.15
% survival (pEBS7 (ATM-null) cells [1]; [9]): 82.3%
Avg (absorbance at 564 nm) (pEBS7 (ATM-null) cells [1]; [9]): 1.17
% survival (pEBS7 (ATM-null) cells [1]; [10]): 88.7%
Avg (absorbance at 564 nm) (pEBS7 (ATM-null) cells [1]; [10]): 1.26
% survival (pEBS7 (ATM-null) cells [1]; [11]): 22.1%
Avg (absorbance at 564 nm) (pEBS7 (ATM-null) cells [1]; [11]): 0.31
% survival (pEBS7 (ATM-null) cells [1]; [12]): 6.2%
Avg (absorbance at 564 nm) (pEBS7 (ATM-null) cells [1]; [12]): 0.09
% survival (pEBS7 (ATM-null) cells [1]; [13]): 0.6%
Avg (absorbance at 564 nm) (pEBS7 (ATM-null) cells [1]; [13]): 0.01
% survival (pEBS7 (ATM-null) cells [1]; [14]): −2.2%
Avg (absorbance at 564 nm) (pEBS7 (ATM-null) cells [1]; [14]): −0.03
% survival (pEBS7 (ATM-null) cells [1]; [15]): −2.0%
Avg (absorbance at 564 nm) (pEBS7 (ATM-null) cells [1]; [15]): −0.03
% survival (pEBS7 (ATM-null) cells [1]; [16]): −0.8%
Avg (absorbance at 564 nm) (pEBS7 (ATM-null) cells [1]; [16]): −0.01
% survival (pEBS7 (ATM-null) cells [1]; [17]): 100%
Avg (absorbance at 564 nm) (pEBS7 (ATM-null) cells [1]; [17]): 1.61
% survival (pEBS7 (ATM-null) cells [1]; [18]): 84.7%
Avg (absorbance at 564 nm) (pEBS7 (ATM-null) cells [1]; [18]): 1.36
% survival (pEBS7 (ATM-null) cells [1]; [19]): 72.7%
Avg (absorbance at 564 nm) (pEBS7 (ATM-null) cells [1]; [19]): 1.17
% survival (pEBS7 (ATM-null) cells [1]; [20]): 72.7%
Avg (absorbance at 564 nm) (pEBS7 (ATM-null) cells [1]; [20]): 1.17
% survival (pEBS7 (ATM-null) cells [1]; [21]): 62.3%
Avg (absorbance at 564 nm) (pEBS7 (ATM-null) cells [1]; [21]): 1.00
% survival (pEBS7 (ATM-null) cells [1]; [22]): 27.9%
Avg (absorbance at 564 nm) (pEBS7 (ATM-null) cells [1]; [22]): 0.45
% survival (pEBS7 (ATM-null) cells [1]; [23]): 13.6%
Avg (absorbance at 564 nm) (pEBS7 (ATM-null) cells [1]; [23]): 0.22
% survival (pEBS7 (ATM-null) cells [1]; [24]): 7.9%
Avg (absorbance at 564 nm) (pEBS7 (ATM-null) cells [1]; [24]): 0.13
% survival (pEBS7 (ATM-null) cells [1]; [25]): 1.2%
Avg (absorbance at 564 nm) (pEBS7 (ATM-null) cells [1]; [25]): 0.02
% survival (pEBS7 (ATM-null) cells [1]; [26]): −0.4%
Avg (absorbance at 564 nm) (pEBS7 (ATM-null) cells [1]; [26]): −0.01
% survival (pEBS7 (ATM-null) cells [1]; [27]): −1.5%
Avg (absorbance at 564 nm) (pEBS7 (ATM-null) cells [1]; [27]): −0.02
% survival (pEBS7 (ATM-null) cells [1]; [28]): −1.7%
Avg (absorbance at 564 nm) (pEBS7 (ATM-null) cells [1]; [28]): −0.03
potentiation of etoposide ([2]; ATM-competent cells): not
potentiation of the effect of doxorubicin ([2]; ATM-competent cells): not
% survival [2, 5]: 100%
Avg (absorbance at 564 nm) [2, 5]: 1.62
% survival [2, 6]: 92.3%
Avg (absorbance at 564 nm) [2, 6]: 1.50
% survival [2, 7]: 96.1%
Avg (absorbance at 564 nm) [2, 7]: 1.56
% survival [2, 8]: 102.9%
Avg (absorbance at 564 nm) [2, 8]: 1.67
% survival [2, 9]: 94.1%
Avg (absorbance at 564 nm) [2, 9]: 1.53
% survival [2, 10]: 98.5%
Avg (absorbance at 564 nm) [2, 10]: 1.60
% survival [2, 11]: 80.4%
Avg (absorbance at 564 nm) [2, 11]: 1.30
% survival [2, 12]: 36.6%
Avg (absorbance at 564 nm) [2, 12]: 0.59
% survival [2, 13]: 23.4%
Avg (absorbance at 564 nm) [2, 13]: 0.38
% survival [2, 14]: 1.1%
Avg (absorbance at 564 nm) [2, 14]: 0.02
% survival [2, 15]: −2.1%
Avg (absorbance at 564 nm) [2, 15]: −0.03
% survival [2, 16]: −1.9%
Avg (absorbance at 564 nm) [2, 16]: −0.03
% survival [2, 17]: 100%
Avg (absorbance at 564 nm) [2, 17]: 1.79
% survival [2, 18]: 88.8%
Avg (absorbance at 564 nm) [2, 18]: 1.59
% survival [2, 19]: 84.9%
Avg (absorbance at 564 nm) [2, 19]: 1.52
% survival [2, 20]: 87.2%
Avg (absorbance at 564 nm) [2, 20]: 1.56
% survival [2, 21]: 86.1%
Avg (absorbance at 564 nm) [2, 21]: 1.54
% survival [2, 22]: 88.9%
Avg (absorbance at 564 nm) [2, 22]: 1.59
% survival [2, 23]: 102.7%
Avg (absorbance at 564 nm) [2, 23]: 1.84
% survival [2, 24]: 55.0%
Avg (absorbance at 564 nm) [2, 24]: 0.99
% survival [2, 25]: 27.6%
Avg (absorbance at 564 nm) [2, 25]: 0.49
% survival [2, 26]: 4.5%
Avg (absorbance at 564 nm) [2, 26]: 0.08
% survival [2, 27]: 5.7%
Avg (absorbance at 564 nm) [2, 27]: 0.10
% survival [2, 28]: 8.6%
Avg (absorbance at 564 nm) [2, 28]: 0.15
potentiation of the effect of irradiation (pEBS7 (ATM-null) cells [3]; ATM-null cells): increased sensitivity; also recorded: significantly potentiate
% survival (pEBS7 (ATM-null) cells [3]; KU-0060648 0.5 μM + IR 0 Gy): 100.0%
% survival (pEBS7 (ATM-null) cells [3]; KU-0060648 0.5 μM + IR 0.5 Gy): 15.8%
% survival (pEBS7 (ATM-null) cells [3]; KU-0060648 0.5 μM + IR 1 Gy): 3.8%
% survival (pEBS7 (ATM-null) cells [3]; KU-0060648 0.5 μM + IR 2 Gy): 1.3%
% survival (pEBS7 (ATM-null) cells [3]; KU-0060648 0.5 μM + IR 4 Gy): 0.3%
2Gy DMR (dose modification ratio) (pEBS7 (ATM-null) cells [3]; single 2 Gy without / with KU-0060648 (0.5 μM), pEBS7 (ATM-null)): 5.7
potentiation of the effect of irradiation ([4]; ATM-competent cells): not
% survival ([4]; KU-0060648 0.5 μM + IR 0 Gy): 100.0%
% survival ([4]; KU-0060648 0.5 μM + IR 0.5 Gy): 39.3%
% survival ([4]; KU-0060648 0.5 μM + IR 1 Gy): 13.5%
% survival ([4]; KU-0060648 0.5 μM + IR 2 Gy): 6.2%
% survival ([4]; KU-0060648 0.5 μM + IR 4 Gy): 1.7%
2Gy DMR (dose modification ratio) ([4]; single 2 Gy without / with KU-0060648 (0.5 μM), pEBS7-YZ (ATM-competent)): 2.0

Source: patent publication US20090035394A1, “USE OF DNA-PK INHIBITION TO SENSITISE ATM DEFICIENT CANCERS TO DNA-DAMAGING CANCER THERAPIES” (priority 2005, published 2009)
